Assay results taken from the NIST ThermoML archive (doi:10.1016/j.jct.2012.05.012).

Assays:
[1] = refractive index (Na D-line) (dimensionless); details: 101 kPa, Liquid, Standard Abbe refractometry
[2] = for mass density: 101 kPa, Buoyancy - hydrostatic balance; for mass density / surface tension liquid-gas: Liquid; for surface tension liquid-gas: Maximal bubble pressure

CCCCn1cc[n+](C)c1.NCC(=O)[O-] [1-butyl-3-methylimidazolium glycinate]
Details	mass density, [2] [kg/m3]	refractive index, [1]	surface tension liquid-gas, [2] [mN/m]
283.15 K	1120.6	–	44.3
288.15 K	1117.4	–	44
293.15 K	1114.2	1.5091	43.8
298.15 K	1110.9	1.5085	43.5
303.15 K	1107.8	1.5068	43.2
308.15 K	1104.7	1.5049	42.9
313.15 K	1101.6	1.5038	42.6
318.15 K	1098.6	1.5029	42.2
323.15 K	1095.5	1.5019	41.8
328.15 K	1092.3	–	41.5

Details	Glass transition temperature [°C]
[2], Glass, DTA	-81.80
